{"source": "patent US10799442B2", "about": "“Compounds useful in the treatment and/or care of the skin, hair, nails, and/or mucous membranes” (LUBRIZOL ADVANCED MATERIALS, INC., priority 2015, dated 2020)", "key": {"Keratin 14": {"tested_on": "Keratin 14", "experiment": "Keratin expression in reconstructed human epidermal tissue (RHE), immunohistochemistry (Keratin 14)", "type": "cell-based", "details": "Keratin 14 immunofluorescence, 10 μg/ml, 48 hours", "description": "The human epidermis continuously renews itself by a process of proliferation and differentiation of keratinocytes. Basal epidermal stem cells proliferate and the differentiation process begins above the basal layer, whereby the differentiating keratinocytes slowly move outward from the basal membrane, migrate through the epidermis, and undergo terminal differentiation culminating in fully differentiated dead cells on the surface. The process is a dynamic flux so that surface cells are continuously sloughed and replaced by inner cells differentiating and moving outward. […] To study the ability of the peptides of the invention to recover the basal keratinocyte state, the expression of Keratins 10 and 14 is evaluated by immunohistochemistry in a three-dimensional culture system, Reconstructed Human Epidermal Tissue (RHE), that reproduces in vitro the histological organization of human epidermis in situ. […]\nThe expression of Keratins 10 and 14 is evaluated by immunohistochemistry with a specific primary antibody and a fluorescently labelled secondary antibody. […] At the end of the incubation, slides are washed with 0.2% solution of Tween 20 in PBS and are incubated with Alexa Fluor® 488 Goat anti-mouse IgG (H+L) secondary antibody (Invitrogen, green fluorescence emission dye) for 1 hour at room temperature in a dark humidified chamber. […]"}, "Keratin 10": {"tested_on": "Keratin 10", "experiment": "Keratins expression profile in HEKa with 1 mM CaCl2, Real Time PCR Arrays (Keratin 10)", "type": "cell-based, Human", "details": "Keratin 10 mRNA, 48 hours", "method": "The candidate compound is assayed for its ability to recover the basal keratinocyte state. The keratinocytes of the four layers of the epidermis present different expression patterns of keratins. Basal keratinocytes strongly express Keratin 14 and when differentiated, Keratin 10 is increased. To elucidate the keratinocyte state (basal or differentiated), the expression profile of keratins is analyzed by Real Time PCR Arrays, using a 96-well panel for use with SYBR® Green (BioRad) to detect mRNA expression levels of two keratin genes (Keratins 10 and 14) plus three housekeeping genes, and five controls, in Human Epidermal Keratinocytes from adult (HEKa) (Cascade Biologics).\nHEKa cells are seeded at 6.0×10^5 cells/well in 6-well plates and incubated in culture medium Epilife with defined Growth Supplement (EDGS) (Cascade Biologics), for 24 hours at 37° C. in a water-saturated atmosphere of 95% air and 5% CO2. After 24 hours, the medium is removed and the cells are incubated with the synthetic peptide candidate at several concentrations in culture medium that contains 1 mM CaCl2) (Sigma) to induce differentiation of keratinocytes. Cells are incubated with 1 mM CaCl2) in culture medium and this provides a positive control of differentiation. Cells are incubated with culture medium only and these provide basal conditions. After 48 hours of treatment at 37° C. in a CO2 incubator, the cells are lysed directly in the wells, and RNA is purified following the protocol described on the RNeasy Mini kit (Qiagen) according to the manufacture's protocol. After RNA elution, quantification and analysis of purity of RNA samples are performed with a biophotometer (Eppendorf). […] SYBR Green binds to double-stranded DNA molecules and emits fluorescence which is quantified; the fluorescence intensity is proportional to the amount of the product in the PCR reaction. […] Fold change relative to the expression of the sample genes and reference genes is calculated using normalized expression (ΔΔ(Ct)) method using CFX Manager Software (BioRad)."}}}
{"substance": "Ac-QEMRMQ-OH [DD14024, Ac-Gln-Glu-Met-Arg-Met-Gln-OH]", "values": [{"measurement": "Fold induction respect to basal conditions (%)", "setting": "Keratin 14", "value": 425.83, "unit": "%"}, {"measurement": "Fold induction respect to positive control of differentiation", "setting": "Keratin 10; 1 mM CaCl2, 0.001 mg/ml", "value": "0.68 ± 0.04"}, {"measurement": "Fold induction respect to positive control of differentiation", "setting": "Keratin 10; 1 mM CaCl2, 0.005 mg/ml", "value": "0.60 ± 0.02"}, {"measurement": "Fold induction respect to positive control of differentiation", "setting": "Keratin 10; 1 mM CaCl2, 0.01 mg/ml", "value": "0.72 ± 0.06"}]}
